Key:
Verticillium fungicola = test: In vitro antifungal activity assay in 96-well microtiter plates against Verticillium fungicola; assay type: cell-based; conditions: 3 days incubation at 25° C.
Protocol: The following compositions are tested: […] Subsequently, 100 μl of a Verticillium fungicola suspension prepared in PCB medium is used to inoculate each well with 5.0×10^3 spores/ml. […] After incubation of the microtiter plates for 3 days at 25° C., the in vitro antifungal activity (%) of the individual active ingredients was assessed by calculating the reduction in mould growth observed in the presence of the active ingredient in comparison to the mould growth observed in the absence of the active ingredient. The expected antifungal activity (E in %) of the active ingredient combination was calculated according to the Colby equation (Colby, 1967): […] wherein X and Y are the observed antifungal activities (in %) of the individual active ingredients X and Y, respectively.

Trichoderma harzianum = test: In vitro antifungal activity assay in 96-well microtiter plates against Trichoderma harzianum; assay type: cell-based
Protocol: Subsequently, 100 μl of a Verticillium fungicola suspension prepared in PCB medium is used to inoculate each well with 5.0×10^3 spores/ml.
After incubation of the microtiter plates for 3 days at 25° C., the in vitro antifungal activity (%) of the individual active ingredients was assessed by calculating the reduction in mould growth observed in the presence of the active ingredient in comparison to the mould growth observed in the absence of the active ingredient. The expected antifungal activity (E in %) of the active ingredient combination was calculated according to the Colby equation (Colby, 1967): […]
wherein X and Y are the observed antifungal activities (in %) of the individual active ingredients X and Y, respectively. If the observed antifungal activity (O in %) of the combination exceeds the expected antifungal activity (E in %) of the combination and the resulting synergy factor O/E is thus >1.0, the combined application of the active ingredients leads to a synergistic antifungal effect.
The experiment was conducted as described in Example 1, except for the fact that the following compositions were tested: • Control (no active ingredient) • 1.25 ppm Natamycin • 5, 10 or 15 ppm thiophanate-methyl • 1.25 ppm Natamycin+5 ppm thiophanate-methyl • 1.25 ppm Natamycin+10 ppm thiophanate-methyl • 1.25 ppm Natamycin+15 ppm thiophanate-methyl
Furthermore, Trichoderma harzianum was used for inoculation. After 3 and 5 days of incubation at 25° C., the antifungal activity (in %) of the individual and combined active ingredients was determined according to the method described in Example 1.

| Compound | Observed antifungal activity O (%) (Verticillium fungicola; Natamycin 2.5 ppm) | Observed antifungal activity O (%) (Verticillium fungicola; Thiophanate-methyl 15 ppm) | Observed antifungal activity O (%) (Verticillium fungicola; Thiophanate-methyl 20 ppm) | Observed antifungal activity O (%) (Trichoderma harzianum; Thiophanate-methyl 5 ppm, 3 days incubation at 25° C.) | Observed antifungal activity O (%) (Trichoderma harzianum; Thiophanate-methyl 10 ppm, 5 days incubation at 25° C.) | Observed antifungal activity O (%) (Trichoderma harzianum; Thiophanate-methyl 15 ppm, 5 days incubation at 25° C.) |
| --- | --- | --- | --- | --- | --- | --- |
| C[C@@H]1C/C=C/C=C/C=C/C=C/[C@H](O[C@@H]2O[C@H](C)[C@@H](O)[C@H](N)[C@@H]2O)C[C@@H]2O[C@](O)(C[C@@H](O)C[C@H]3O[C@@H]3/C=C/C(=O)O1)C[C@H](O)[C@H]2C(=O)O [Natamycin, natamycin] | 0 |  |  |  |  |  |
| COC(=O)NC(=S)Nc1ccccc1NC(=S)NC(=O)OC [Thiophanate-methyl, dimethyl 4,4′-(o-phenylene)bis(3-thioallophanate)] |  | 50 | 50 | 0 | 0 | 0 |

Reference: patent US20150181885A1, “METHOD FOR CONTROLLING FUNGAL DISEASES IN MUSHROOM PRODUCTION” (priority 2012, published 2015)
